Measured values as given in patent US11213031B2, “Tetrazolylpropyl derivatives and their use as fungicides” (BAYER AKTIENGESELLSCHAFT, priority 2017, dated 2022).

Test: Log P by HPLC on reversed phase columns (EEC directive 79/831 Annex V.A8)
Assay type: physicochemical
Conditions: not given
Description: Measurement of Log P values was performed according to EEC directive 79/831 Annex V.A8 by HPLC (High Performance Liquid Chromatography) on reversed phase columns with the following methods: • ^[a]Log P value is determined by measurement of LC-UV, in an acidic range, with 0.1% formic acid in water and acetonitrile as eluent (linear gradient from 10% acetonitrile to 95% acetonitrile). • ^[b]Log P value is determined by measurement of LC-UV, in a neutral range, with 0.001 molar ammonium acetate solution in water and acetonitrile as eluent (linear gradient from 10% acetonitrile to 95% acetonitrile). • ^[c]Log P value is determined by measurement of LC-UV, in an acidic range, with 0.1% phosphoric acid and acetonitrile as eluent (linear gradient from 10% acetonitrile to 95% acetonitrile).
If more than one Log P value is available within the same method, all the values are given and separated by “+”.
Calibration was done with straight-chain alkan2-ones (with 3 to 16 carbon atoms) with known Log P values (measurement of Log P values using retention times with linear interpolation between successive alkanones). Lambda-max-values were determined using UV-spectra from 200 nm to 400 nm and the peak values of the chromatographic signals.

SMILES | LogP
OC(Cc1ccc(F)c(F)c1)(Cn1cnnn1)C1(Cl)CC1 (stereo not drawn) [Ia-56] | 2.64^[a]
OC(Cc1ccccc1OC(F)(F)F)(Cn1cnnn1)C1(Cl)CC1 (stereo not drawn) [Ia-32] | 3.06^[a]
OC(Cc1ccc(Cl)cc1F)(Cn1ncnn1)C1(Cl)CC1 (stereo not drawn) [Ib-08] | 3.37^[a]
OC(Cc1ccc(F)cc1Cl)(Cn1cnnn1)C1(Cl)CC1 (stereo not drawn) [Ia-39] | 2.90^[a]
OC(Cc1ccc(F)c(F)c1F)(Cn1ncnn1)C1(Cl)CC1 (stereo not drawn) [Ib-10] | 3.11^[a]
OC(Cc1ccc(F)c(Cl)c1)(Cn1ncnn1)C1(Cl)CC1 (stereo not drawn) [Ib-18] | 3.33^[a]
Cc1ccc(F)c(CC(O)(Cn2ncnn2)C2(Cl)CC2)c1F (stereo not drawn) [Ib-09] | 3.37^[a]
CC=C(c1cccc(F)c1F)C(O)(Cn1cnnn1)C1(Cl)CC1 (racemic) [Ia-en-06] | 2.82^[a]
OC(Cc1cccc(Cl)c1F)(Cn1ncnn1)C1(Cl)CC1 (stereo not drawn) [Ib-06] | 3.19^[a]
CC1(C(O)(Cc2cccc(Br)c2)Cn2cnnn2)CC1 (stereo not drawn) [Ia-63] | 2.84^[a]
OC(Cc1c(F)ccc(F)c1F)(Cn1ncnn1)C1(Cl)CC1 (stereo not drawn) [Ib-19] | 3.02^[a]
CC1(C(O)(Cc2ccccc2)Cn2cnnn2)CC1 (stereo not drawn) [Ia-10] | 2.35^[a]
OC(Cc1cccnc1F)(Cn1ncnn1)C1(Cl)CC1 (stereo not drawn) [Ib-25] | 1.91^[a]
COc1cccc(CC(O)(Cn2cnnn2)C2(Cl)CC2)c1 (stereo not drawn) [Ia-60] | 2.42^[a]
OC(Cc1ccncc1Cl)(Cn1ncnn1)C1(Cl)CC1 (stereo not drawn) [Ib-22] | 1.96^[b]
OC(Cc1ccc(F)c(F)c1F)(Cn1cnnn1)C1(Cl)CC1 (stereo not drawn) [Ia-44] | 2.71^[a]
OC(Cc1ccc(F)c(Cl)c1F)(Cn1cnnn1)C1(Cl)CC1 (stereo not drawn) [Ia-38] | 2.94^[a]
Cc1ccc(CC(O)(Cn2cnnn2)C2(F)CC2)cc1 (stereo not drawn) [Ia-33] | 2.44^[a]
CC1(C(O)(Cc2ccccc2Br)Cn2cnnn2)CC1 (stereo not drawn) [Ia-09] | 2.92^[a]
C=C(c1ccccc1F)C(O)(Cn1ncnn1)C1(Cl)CC1 (stereo not drawn) [Ib-en-01] | 2.96^[a]
CC=C(c1cccc(Cl)c1F)C(O)(Cn1cnnn1)C1(Cl)CC1 (racemic) [Ia-en-05] | 3.00^[a]
OC(Cc1ccc(F)c(Cl)c1F)(Cn1ncnn1)C1(Cl)CC1 (stereo not drawn) [Ib-12] | 3.37^[a]
COc1ccc(CC(O)(Cn2cnnn2)C2(C)CC2)cc1 (stereo not drawn) [Ia-34] | 2.35^[a]

SMILES | LogP
OC(Cc1c(F)cccc1Cl)(Cn1cnnn1)C1(Cl)CC1 (stereo not drawn) [Ia-72] | 2.90^[a]
CC(c1cc(F)ccc1F)C(O)(Cn1cnnn1)C1(Cl)CC1 (single isomer, unassigned) [Ia-16] | 2.66^[a]
OC(Cc1cccc(Cl)c1)(Cn1cnnn1)C1(Cl)CC1 (stereo not drawn) [Ia-47] | 2.82^[a]
Cc1ccc(F)c(CC(O)(Cn2cnnn2)C2(Cl)CC2)c1Cl (stereo not drawn) [Ia-45] | 3.23^[a]
OC(Cc1cccc(F)c1F)(Cn1cnnn1)C1(Cl)CC1 (stereo not drawn) [Ia-06] | 2.46^[a]
COc1c(F)ccc(CC(O)(Cn2cnnn2)C2(Cl)CC2)c1F (stereo not drawn) [Ia-50] | 2.62^[a]
OC(Cc1ccccc1Br)(Cn1cnnn1)C1(Cl)CC1 (stereo not drawn) [Ia-24] | 2.88^[a]
COc1ccc(CC(O)(Cn2ncnn2)C2(Cl)CC2)c(F)c1F (stereo not drawn) [Ib-13] | 2.94^[a]
CC=C(c1ccccc1F)C(O)(Cn1cnnn1)C1(Cl)CC1 (racemic) [Ia-en-04] | 2.66^[a]
OC(Cc1ccccc1)(Cn1cnnn1)C1(F)CC1 (stereo not drawn) [Ia-17] | 2.08^[a]
Cc1ccc(CC(O)(Cn2cnnn2)C2(Cl)CC2)cc1 (stereo not drawn) [Ia-57] | 2.78^[a]
OC(Cc1cc(F)cc(F)c1F)(Cn1cnnn1)C1(Cl)CC1 (stereo not drawn) [Ia-43] | 2.66^[a]
COc1cccc(CC(O)(Cn2cnnn2)C2(F)CC2)c1 (stereo not drawn) [Ia-26] | 2.11^[a]
C=C(c1cccc(Cl)c1F)C(O)(Cn1cnnn1)C1(Cl)CC1 (stereo not drawn) [Ia-en-10] | 2.82^[a]
OC(Cc1ccccc1C(F)(F)F)(Cn1cnnn1)C1(Cl)CC1 (stereo not drawn) [Ia-07] | 3.02^[a]
OC(Cc1ccc(Br)cc1F)(Cn1cnnn1)C1(Cl)CC1 (stereo not drawn) [Ia-67] | 3.23^[a]
C=C(c1ccccc1)C(O)(Cn1cnnn1)C1(Cl)CC1 (stereo not drawn) [Ia-en-03] | 2.46^[a]
OC(Cc1ccc(F)c(Cl)c1)(Cn1cnnn1)C1(Cl)CC1 (stereo not drawn) [Ia-52] | 2.90^[a]
CC1(C(=O)Cn2ncnn2)CC1 [XVIb-02] | 1.05^[a]
OC(Cc1ccncc1Cl)(Cn1cnnn1)C1(Cl)CC1 (stereo not drawn) [Ia-73] | 1.65^[a]
Cc1ccc(CC(O)(Cn2ncnn2)C2(Cl)CC2)c(F)c1F (stereo not drawn) [Ib-21] | 3.33^[a]
COc1ccc(F)c(CC(O)(Cn2ncnn2)C2(Cl)CC2)c1F (stereo not drawn) [Ib-20] | 2.86^[a]
OC(Cc1cccc(Cl)c1F)(Cn1cnnn1)C1(Cl)CC1 (stereo not drawn) [Ia-02] | 2.72^[a]

SMILES | LogP
COc1cc(F)c(CC(O)(Cn2ncnn2)C2(Cl)CC2)c(F)c1 (stereo not drawn) [Ib-15] | 3.11^[a]
OC(Cc1c(F)cc(F)cc1F)(Cn1cnnn1)C1(Cl)CC1 (stereo not drawn) [Ia-35] | 2.64^[a]
OC(Cc1cccc(F)c1)(Cn1cnnn1)C1(Cl)CC1 (stereo not drawn) [Ia-69] | 2.54^[a]
OC(Cc1cccc(Br)c1)(Cn1cnnn1)C1(Cl)CC1 (stereo not drawn) [Ia-62] | 2.92^[a]
Cc1ccc(F)c(CC(O)(Cn2cnnn2)C2(Cl)CC2)c1F (stereo not drawn) [Ia-36] | 2.90^[a]
OC(Cc1cc(F)cc(F)c1F)(Cn1ncnn1)C1(Cl)CC1 (stereo not drawn) [Ib-11] | 3.06^[a]
OC(Cc1c(F)cc(Cl)cc1F)(Cn1cnnn1)C1(Cl)CC1 (stereo not drawn) [Ia-75] | 2.98^[a]
OC(Cc1cc(F)ccc1F)(Cn1cnnn1)C1(Cl)CC1 (stereo not drawn) [Ia-42] | 2.52^[a]
C=C(c1cc(F)ccc1F)C(O)(Cn1cnnn1)C1(Cl)CC1 (stereo not drawn) [Ia-en-01] | 2.54^[a]
OC(Cc1cncc(Cl)c1)(Cn1cnnn1)C1(Cl)CC1 (stereo not drawn) [Ia-74] | 1.86^[a]
OC(Cc1ccc(F)c(F)c1)(Cn1ncnn1)C1(Cl)CC1 (stereo not drawn) [Ib-24] | 3.04^[a]
COc1ccccc1CC(O)(Cn1cnnn1)C1(Cl)CC1 (stereo not drawn) [Ia-14] | 2.73^[a]
O=C(Cn1ncnn1)C1(F)CC1 [XVIb-03] | 0.86^[a]
COc1c(F)ccc(CC(O)(Cn2ncnn2)C2(Cl)CC2)c1F (stereo not drawn) [Ib-14] | 3.00^[a]
COc1cc(F)c(CC(O)(Cn2cnnn2)C2(Cl)CC2)c(F)c1 (stereo not drawn) [Ia-49] | 2.69^[a]
CC1(C(O)(Cc2ccccc2Cl)Cn2cnnn2)CC1 (stereo not drawn) [Ia-08] | 2.80^[a]
COc1ccc(CC(O)(Cn2cnnn2)C2(Cl)CC2)c(F)c1F (stereo not drawn) [Ia-48] | 2.59^[a]
C=C(c1ccccc1Cl)C(O)(Cn1cnnn1)C1(Cl)CC1 (stereo not drawn) [Ia-en-09] | 2.71^[a]
C=C(c1cccc(F)c1F)C(O)(Cn1cnnn1)C1(Cl)CC1 (stereo not drawn) [Ia-en-08] | 2.57^[a]
OC(Cc1cc(F)c(F)cc1F)(Cn1cnnn1)C1(Cl)CC1 (stereo not drawn) [Ia-51] | 2.66^[a]
OC(Cc1ccc(F)cc1F)(Cn1cnnn1)C1(Cl)CC1 (stereo not drawn) [Ia-53] | 2.57^[a]
OC(Cc1ccc(Cl)cc1F)(Cn1cnnn1)C1(Cl)CC1 (stereo not drawn) [Ia-40] | 2.90^[a]
CC=C(c1cccc(F)c1F)C(O)(Cn1cnnn1)C1(Cl)CC1 (racemic) [Ia-en-07] | 2.75^[a]

SMILES | LogP
CC1(C(=O)Cn2cnnn2)CC1 [XVIa-02] | 0.79^[a]
CC1(C(O)(Cc2ccccc2C(F)(F)F)Cn2cnnn2)CC1 (stereo not drawn) [Ia-11] | 2.94^[a]
Cc1cccc(CC(O)(Cn2cnnn2)C2(C)CC2)c1 (stereo not drawn) [Ia-65] | 2.73^[a]
OC(Cc1cc(F)c(F)cc1F)(Cn1ncnn1)C1(Cl)CC1 (stereo not drawn) [Ib-16] | 3.09^[a]
OC(Cc1ccccc1C(F)(F)F)(Cn1cnnn1)C1(F)CC1 (stereo not drawn) [Ia-76] | 2.71^[a]
OC(Cc1cccc(Br)c1)(Cn1cnnn1)C1(F)CC1 (stereo not drawn) [Ia-23] | 2.59^[a]
O=C(Cn1cnnn1)C1(F)CC1 [XVIa-03] | 0.59^[a]
OC(Cc1cncc(F)c1)(Cn1ncnn1)C1(Cl)CC1 (stereo not drawn) [Ib-23] | 1.76^[a]
OC(Cc1c(F)cccc1F)(Cn1cnnn1)C1(Cl)CC1 (stereo not drawn) [Ia-13] | 2.52^[a]
OC(Cc1cc(F)cc(F)c1)(Cn1cnnn1)C1(Cl)CC1 (stereo not drawn) [Ia-31] | 2.63^[a]
OC(Cc1cccc(C(F)(F)F)c1F)(Cn1cnnn1)C1(Cl)CC1 (stereo not drawn) [Ia-71] | 3.04^[a]
CC1(C(O)(Cc2ccccc2F)Cn2cnnn2)CC1 (stereo not drawn) [Ia-68] | 2.45^[a]
Cc1ccc(CC(O)(Cn2cnnn2)C2(Cl)CC2)c(F)c1F (stereo not drawn) [Ia-55] | 2.92^[a]
Cc1cccc(CC(O)(Cn2cnnn2)C2(F)CC2)c1 (stereo not drawn) [Ia-28] | 2.42^[a]
OC(Cc1c(F)cc(F)cc1F)(Cn1ncnn1)C1(Cl)CC1 (stereo not drawn) [Ib-07] | 3.09^[a]
Cc1ccccc1CC(O)(Cn1cnnn1)C1(C)CC1 (stereo not drawn) [Ia-12] | 2.75^[a]
OC(Cc1cc(Cl)ccc1F)(Cn1cnnn1)C1(Cl)CC1 (stereo not drawn) [Ia-29] | 2.86^[a]
Cc1cccc(CC(O)(Cn2cnnn2)C2(Cl)CC2)c1 (stereo not drawn) [Ia-64] | 2.78^[a]
CC(c1cccc(F)c1F)C(O)(Cn1cnnn1)C1(Cl)CC1 (stereo not drawn) [Ia-25] | 2.96^[a]
Cc1ccccc1CC(O)(Cn1cnnn1)C1(Cl)CC1 (stereo not drawn) [Ia-66] | 2.77^[a]
COc1cccc(CC(O)(Cn2cnnn2)C2(C)CC2)c1 (stereo not drawn) [Ia-61] | 2.37^[a]
OC(Cc1ccc(F)cc1F)(Cn1ncnn1)C1(Cl)CC1 (stereo not drawn) [Ib-17] | 2.96^[a]

Same assay, conditions: method [a]: LC-UV, acidic range, 0.1% formic acid in water and acetonitrile as eluent

SMILES | chromatographic logP
O=C(Cn1ncnn1)C1(Cl)CC1 [XVIb-01, 1-(1-chlorocyclopropyl)-2-(tetrazol-2-yl)ethanone] | 1.3
O=C(Cn1cnnn1)C1(Cl)CC1 [XVIa-01, 1-(1-chlorocyclopropyl)-2-(tetrazol-1-yl)ethanone] | 0.99
